Experiments:
UACC-62 = assay: Cytotoxicity against human UACC62 cells; type: functional
Malme-3M = assay: Cytotoxicity against human MALME3M cells; type: functional
[1] = Cytotoxicity against human RXF631 cells; type: functional; conditions: RXF 631
M14 = assay: Cytotoxicity against human M14 cells; type: functional
PC-3 = assay: Cytotoxicity against human PC3 cells; type: functional
MDA-N = assay: Cytotoxicity against human MDAN cells; type: functional
MDA-MB-231 = assay: Cytotoxicity against human MDA-MB-231 cells; type: functional
OVCAR-8 = assay: Cytotoxicity against human OVCAR8 cells; type: functional
COLO 205 = assay: Cytotoxicity against human COLO205 cells; type: functional
NCI-H522 = assay: Cytotoxicity against human NCI-H522 cells; type: functional
SK-OV-3 = assay: Cytotoxicity against human SK-OV-3 cells; type: functional
ACHN = assay: Cytotoxicity against human ACHN cells; type: functional
NCI-H23 = assay: Cytotoxicity against human NCI-H23 cells; type: functional
[2] = Cytotoxicity against human DMS144 cells; type: functional
SW-620 = assay: Cytotoxicity against human SW620 cells; type: functional
OVCAR-3 = assay: Cytotoxicity against human OVCAR-3 cells; type: functional
NCI-H226 = assay: Cytotoxicity against human NCI-H226 cells; type: functional
CCRF-CEM = assay: Cytotoxicity against human CCRF-CEM cells; type: functional
SNB-78 = assay: Cytotoxicity against human SNB78 cells; type: functional
HCT-116 = assay: Cytotoxicity against human HCT116 cells; type: functional
[3] = Cytotoxicity against human […] cells; type: functional
MOLT-4 = assay: Cytotoxicity against human MOLT4 cells; type: functional
MDA-MB-435 = assay: Cytotoxicity against human MDA-MB-435 cells; type: functional
UACC-257 = assay: Cytotoxicity against human UACC257 cells; type: functional
OVCAR-4 = assay: Cytotoxicity against human OVCAR4 cells; type: functional
[4] = Cytotoxicity against human HL60(TB) cells; type: functional, HL-60(TB); conditions: HL-60
IGROV-1 = assay: Cytotoxicity against human IGROV1 cells; type: functional
KM-20L2 = assay: Cytotoxicity against human KM20L2 cells; type: functional
SK-MEL-28 = assay: Cytotoxicity against human SK-MEL-28 cells; type: functional
BT-549 = assay: Cytotoxicity against human BT549 cells; type: functional
SK-MEL-5 = assay: Cytotoxicity against human SK-MEL-5 cells; type: functional
HOP-18 = assay: Cytotoxicity against human HOP18 cells; type: functional
OVCAR-5 = assay: Cytotoxicity against human OVCAR5 cells; type: functional
[5] = Cytotoxicity against human TK20 cells; type: functional
SNB-75 = assay: Cytotoxicity against human SNB75 cells; type: functional
DMS-273 = assay: Cytotoxicity against human DMS273 cells; type: functional
SF-268 = assay: Cytotoxicity against human SF268 cells; type: functional
[6] = Cytotoxicity against human 786-O cells; type: functional; conditions: 786-0
SN12C = assay: Cytotoxicity against human SN12C cells; type: functional
K562 = assay: Cytotoxicity against human K562 cells; type: functional
UO-31 = assay: Cytotoxicity against human UO31 cells; type: functional
A549 = assay: Cytotoxicity against human A549 cells; type: functional
CAKI-1 = assay: Cytotoxicity against human CAKI1 cells; type: functional
SR = assay: Cytotoxicity against human SR cells; type: functional
U-251 = assay: Cytotoxicity against human U251 cells; type: functional
RXF 393 = assay: Cytotoxicity against human RXF393 cells; type: functional
HOP-92 = assay: Cytotoxicity against human HOP92 cells; type: functional
DU-145 = assay: Cytotoxicity against human DU145 cells; type: functional
XF498 = assay: Cytotoxicity against human XF498 cells; type: functional
NCI-H322M = assay: Cytotoxicity against human NCI-H322M cells; type: functional
MCF7 = assay: Cytotoxicity against human MCF7 cells; type: functional
NCI/ADR-RES = assay: Cytotoxicity against human NCI/ADR-RES cells; type: functional
LOX IMVI = assay: Cytotoxicity against human LOXIMVI cells; type: functional
SF-539 = assay: Cytotoxicity against human SF539 cells; type: functional
Hs-578T = assay: Cytotoxicity against human HS578T cells; type: functional
T47D = assay: Cytotoxicity against human T47D cells; type: functional
SNB-19 = assay: Cytotoxicity against human SNB19 cells; type: functional
[7] = Cytotoxicity against human HCC2996 cells; type: functional
HT-29 = assay: Cytotoxicity against human HT29 cells; type: functional
SK-MEL-2 = assay: Cytotoxicity against human SK-MEL-2 cells; type: functional
DLD-1 = assay: Cytotoxicity against human DLD1 cells; type: functional
[8] = Cytotoxicity against human LXFL529 cells; type: functional; conditions: LXFL 529
EKVX = assay: Cytotoxicity against human EKVX cells; type: functional
KM12 = assay: Cytotoxicity against human KM12 cells; type: functional
RPMI-8226 = assay: Cytotoxicity against human RPMI8226 cells; type: functional
M19-MEL = assay: Cytotoxicity against human M19-MEL cells; type: functional
NCI-H460 = assay: Cytotoxicity against human NCI-H460 cells; type: functional
HCT-15 = assay: Cytotoxicity against human HCT15 cells; type: functional
SF-295 = assay: Cytotoxicity against human SF295 cells; type: functional
HOP-62 = assay: Cytotoxicity against human HOP62 cells; type: functional

In the case of C[C@@H]1[C@]2(O[C@H]3C=C4[C@@H]5CC[C@H]6Cc7nc8c(nc7C[C@]6(C)[C@H]5C[C@@H](O)[C@]4(C)[C@]31O)C[C@@H]1CC[C@H]3C4=CC[C@@H]5[C@H](C)[C@@]6(OC[C@]45C(=O)C[C@@H]3[C@@]1(C)C8)OC(C)(C)C[C@H]6O)O[C@](C)(CO)C[C@H]2O [CEPHALOSTATIN 1], the GI50 (UACC-62) is reported as 0.316 nM, the GI50 (Malme-3M) is reported as 8.13 nM and the GI50 [1] is reported as 0.309 nM. It also gave a GI50 (M14) of 0.955 nM, a GI50 (PC-3) of 0.288 nM and a GI50 (MDA-N) of 1.86 nM. It also gave a GI50 (MDA-MB-231) of 1.2 nM, a GI50 (OVCAR-8) of 60.3 nM and a GI50 (COLO 205) of 1.55 nM. For the same compound, the GI50 (NCI-H522) was 120 nM, the GI50 (SK-OV-3) was 1.02 nM and the GI50 (ACHN) was 8.13 nM. It also gave a GI50 (NCI-H23) of 550 nM, a GI50 [2] of 0.166 nM and a GI50 (SW-620) of 0.977 nM. It also gave a GI50 (OVCAR-3) of 70.8 nM, a GI50 (NCI-H226) of 275 nM and a GI50 (CCRF-CEM) of 0.309 nM. It also gave a GI50 (SNB-78) of 0.776 nM, a GI50 (HCT-116) of 0.692 nM and a GI50 [3] of 1.41 nM. The GI50 (MOLT-4) was 0.204 nM, the GI50 (MDA-MB-435) was 0.813 nM and the GI50 (UACC-257) was 4.27 nM. It also gave a GI50 (OVCAR-4) of 38.9 nM, a GI50 [4] of 0.355 nM and a GI50 (IGROV-1) of 3.98 nM. For the same compound, the GI50 (KM-20L2) was 1.2 nM, the GI50 (SK-MEL-28) was 0.617 nM and the GI50 (BT-549) was 0.759 nM. The GI50 (SK-MEL-5) was 2.34 nM, the GI50 (HOP-18) was 72.4 nM and the GI50 (OVCAR-5) was 13.2 nM. For the same compound, the GI50 [5] was 33.9 nM, the GI50 (SNB-75) was 0.1 nM and the GI50 (DMS-273) was 0.11 nM. The GI50 (SF-268) was 1.1 nM, the GI50 [6] was 0.17 nM and the GI50 (SN12C) was 295 nM. It also gave a GI50 (K562) of 0.617 nM, a GI50 (UO-31) of 0.617 nM and a GI50 (A549) of 0.513 nM. The GI50 (CAKI-1) was 1.55 nM, the GI50 (SR) was 0.209 nM and the GI50 (U-251) was 0.182 nM. It also gave a GI50 (RXF 393) of 0.1 nM, a GI50 (HOP-92) of 0.661 nM and a GI50 (DU-145) of 53.7 nM. The GI50 (XF498) was 0.724 nM, the GI50 (NCI-H322M) was 91.2 nM and the GI50 (MCF7) was 0.355 nM. It also gave a GI50 (NCI/ADR-RES) of 69.2 nM, a GI50 (LOX IMVI) of 0.324 nM and a GI50 (SF-539) of 0.151 nM. For the same compound, the GI50 (Hs-578T) was 0.112 nM, the GI50 (T47D) was 245 nM and the GI50 (SNB-19) was 4.57 nM. For the same compound, the GI50 [7] was 95.5 nM, the GI50 (HT-29) was 2.82 nM and the GI50 (SK-MEL-2) was 1.1 nM. It also gave a GI50 (DLD-1) of 41.7 nM, a GI50 [8] of 0.331 nM and a GI50 (EKVX) of 5.37 nM. It also gave a GI50 (KM12) of 1.86 nM, a GI50 (RPMI-8226) of 0.107 nM and a GI50 (M19-MEL) of 617 nM. It also gave a GI50 (NCI-H460) of 0.269 nM, a GI50 (HCT-15) of 4.07 nM and a GI50 (SF-295) of 0.123 nM. For the same compound, the GI50 (HOP-62) was 0.24 nM.

Source: ChEMBL document CHEMBL1144805, “The cephalostatin way of apoptosis” (2008)
